Laboratory results from patent US10106833B2, “Methods and compounds for identifying glycosyltransferase inhibitors” (priority 2012, dated 2018).

Tests used:
S. aureus SgtB [1] = target: S. aureus SgtB (Staphylococcus aureus, UniProt Q99T05); assay: Displacement of probe compound S16 (CMG121) from S. aureus SgtB, decrease in fluorescence polarization on addition of test compound; format: binding; conditions: read-out: S. aureus SgtB Kd; FIG. 2; FP displacement; 75 nM probe S16, 0.2-0.25 uM SgtB, 10 mM TRIS pH 8.0, 100 mM NaCl, 0° C. 30 min
Description: (§1) Solution containing 10 mM TRIS (pH=8.0), 100 mM NaCl, 0.3% DMSO, 75 nM S16, and bacterial glycosyltransferase (E. coli PBP1b c=2.2 uM; E. faecalis PBP2a c=5.1 uM; S. aureus SgtB c=2.1 uM) were allowed to equilibrate for 30 min at 0° C. and then serially diluted (1/1 dilutions) into buffer containing 10 mM TRIS (pH=8.0), 100 mM NaCl, 0.3% DMSO, and 75 nM S16. After equilibration at 0° C. for 30 min the 20 μL of the solutions were transferred to a black 384 well plate (Corning NBS Low Volume) and fluorescence polarization (FP, ex: 480 nm; em: 535 nm) was measured using a Perkin Elmer Envision microplate reader. Each series was performed in duplicate and the data was plotted FP vs. concentration of enzyme. For determination of the KD, the average FP values were converted to fluorescence anisotropy and fitted to the standard equation describing an equilibrium L+E<->LE (L=ligand; E=enzyme; LE=ligand enzyme complex) using GraphPad Prism 5.0 (GraphPad Software, Inc.; La Jolla, Calif., USA). The KD values for probe S16 are: E. coli PBP1b: 0.15; E. faecalis PBP2a: 0.38;
S. aureus SgtB: 0.18. Probe CMG121 (75 nM) is displaced from S. aureus SgtB (0.2 μM) by addition of either moenomycin or the weaker PGT inhibitor disaccharide S15, as evidenced by reduction of FP. […]
(§2) For determination of the Ki, the average FP values were first converted to fluorescence anisotropy.

E. coli PBP1b [2] = target: T1, E. coli PBP1b (Escherichia coli, UniProt P02919); assay: Displacement of probe compound S16 (CMG121) from E. coli PBP1b, decrease in fluorescence polarization on addition of test compound; format: binding
T1 sequence (P02919 whole entry): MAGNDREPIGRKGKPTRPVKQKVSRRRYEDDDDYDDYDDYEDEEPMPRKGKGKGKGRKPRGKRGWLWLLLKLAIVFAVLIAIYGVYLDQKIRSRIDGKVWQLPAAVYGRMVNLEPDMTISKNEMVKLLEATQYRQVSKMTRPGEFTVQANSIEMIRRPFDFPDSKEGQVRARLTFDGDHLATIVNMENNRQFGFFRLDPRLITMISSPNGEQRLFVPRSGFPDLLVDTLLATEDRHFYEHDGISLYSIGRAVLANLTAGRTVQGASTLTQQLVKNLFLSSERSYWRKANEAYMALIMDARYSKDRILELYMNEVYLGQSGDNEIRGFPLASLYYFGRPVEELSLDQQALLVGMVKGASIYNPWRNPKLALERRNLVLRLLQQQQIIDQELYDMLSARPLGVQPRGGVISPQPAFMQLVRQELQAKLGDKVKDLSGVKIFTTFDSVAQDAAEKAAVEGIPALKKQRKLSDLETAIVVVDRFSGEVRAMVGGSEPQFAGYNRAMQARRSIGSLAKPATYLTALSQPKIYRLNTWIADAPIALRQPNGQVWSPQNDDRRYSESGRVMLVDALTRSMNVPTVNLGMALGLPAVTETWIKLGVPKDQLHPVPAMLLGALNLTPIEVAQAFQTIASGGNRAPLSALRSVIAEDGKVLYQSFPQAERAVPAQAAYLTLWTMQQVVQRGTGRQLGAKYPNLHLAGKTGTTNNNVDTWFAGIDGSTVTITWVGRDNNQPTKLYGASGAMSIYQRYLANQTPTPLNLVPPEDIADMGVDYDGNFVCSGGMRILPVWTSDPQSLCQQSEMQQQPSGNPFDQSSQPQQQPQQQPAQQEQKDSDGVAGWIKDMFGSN
Description: as §1, with “0.38; […]” for “0.38;”
as §2

E. faecalis PBP2a = E. faecalis PBP2a (Enterococcus faecalis, UniProt Q837Z4); assay: Displacement of probe compound S16 (CMG121) from E. faecalis PBP2a, decrease in fluorescence polarization on addition of test compound; format: binding; conditions: read-out: E. faecalis PBP2a Kd; FIG. 2; FP displacement; 75 nM probe S16, 0.38-0.46 uM PBP2a, 10 mM TRIS pH 8.0, 100 mM NaCl, 0° C. 30 min
E. faecalis PBP2a, sequence (Q837Z4 entry or part of it): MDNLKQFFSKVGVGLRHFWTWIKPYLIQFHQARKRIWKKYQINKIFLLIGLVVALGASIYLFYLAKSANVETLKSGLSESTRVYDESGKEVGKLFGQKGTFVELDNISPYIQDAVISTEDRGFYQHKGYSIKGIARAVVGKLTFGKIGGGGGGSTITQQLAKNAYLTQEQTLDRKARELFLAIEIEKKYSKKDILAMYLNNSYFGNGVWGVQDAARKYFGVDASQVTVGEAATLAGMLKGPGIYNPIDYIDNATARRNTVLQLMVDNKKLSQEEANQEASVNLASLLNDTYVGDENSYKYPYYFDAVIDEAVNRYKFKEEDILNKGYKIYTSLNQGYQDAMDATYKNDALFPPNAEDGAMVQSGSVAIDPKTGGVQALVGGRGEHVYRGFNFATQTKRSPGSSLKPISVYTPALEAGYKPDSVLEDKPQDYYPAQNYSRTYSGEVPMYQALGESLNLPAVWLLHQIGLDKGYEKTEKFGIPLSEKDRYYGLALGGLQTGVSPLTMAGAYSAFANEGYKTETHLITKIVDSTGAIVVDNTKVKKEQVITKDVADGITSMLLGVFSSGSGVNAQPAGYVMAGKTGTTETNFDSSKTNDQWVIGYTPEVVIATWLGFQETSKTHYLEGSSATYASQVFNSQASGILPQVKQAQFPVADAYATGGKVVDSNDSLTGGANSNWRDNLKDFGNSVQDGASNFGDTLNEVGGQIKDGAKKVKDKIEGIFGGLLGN
Description: as §1, with “0.38; […]” for “0.38;”
as §2

[3] = tested on: bacterial glycosyltransferase (E. coli PBP1b; E. faecalis PBP2a; S. aureus SgtB); assay: Assay validation: displacement of probe compound from enzyme (fluorescence polarization); format: binding; conditions: 75 nM probe S16; test compound up to ca. 200 uM
Description: (§3) To equilibrated solutions containing 10 mM TRIS (pH=8.0), 100 mM NaCl, 75 nM S16, and bacterial glycosyltransferase (E. coli PBP1b c=0.1-0.15 uM; E. faecalis PBP2a c=0.38-0.46 uM; S. aureus SgtB c=0.2-0.25 uM) was added the test compound in DMSO or DMSO/H2O solutions (stock solutions were typically 2 mM) to obtain a final concentration of test compound of ca. 200 uM. These solutions were serially diluted (1/1 dilutions) into buffer containing 10 mM TRIS (pH=8.0), 100 mM NaCl, 75 nM Probe CMG121, and bacterial glycosyl transferase (E. coli PBP1b c=0.1-0.15 uM; E. faecalis PBP2a c=0.38-0.46 uM; S. aureus SgtB c=0.2-0.25 uM). After equilibration at 0° C. for 30 min the 20 μL of the solutions were transferred to a black 384 well plate (Corning NBS Low Volume) and fluorescence polarization (FP, ex: 480 nm; em: 535 nm) was measured using a Perkin Elmer Envision microplate reader. Each series was performed in duplicate and the data was plotted FP vs. concentration of test compound.

Gram-positive organisms = conditions: against Gram-positive organisms; cited from earlier work
S. aureus SgtB [4] = target: T2, S. aureus SgtB (Staphylococcus aureus, UniProt Q93Q23); assay: In vitro PGT inhibition, PG formation from 14C-lipid II; format: biochemical; conditions: S. aureus SgtB 50 nM, lipid II 4 μM
T2 sequence (Q93Q23 1-269): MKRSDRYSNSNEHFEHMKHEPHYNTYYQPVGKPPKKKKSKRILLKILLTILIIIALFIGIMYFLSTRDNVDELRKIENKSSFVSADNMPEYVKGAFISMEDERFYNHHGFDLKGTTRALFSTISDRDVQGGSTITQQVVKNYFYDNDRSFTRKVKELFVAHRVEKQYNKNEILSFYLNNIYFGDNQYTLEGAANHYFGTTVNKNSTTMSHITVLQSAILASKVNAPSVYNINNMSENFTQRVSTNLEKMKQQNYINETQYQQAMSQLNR
Description: (§4) A solutions of S. aureus SgtB (50 nM) in 12.5 mM HEPES (pH=7.5), 2 mM MnCl2, and 250 μM tween-80 (8 μL) were incubated with DMSO solutions containing the inhibitor of interest in different concentrations (1 μL) for 20 min. Then ^14C-labelled lipid II (1 μL, 40 μM, ^14C/^12C 1/3) was added and the polymerization reaction was allowed to proceed for 25 min at room temperature. The reaction was quenched with 10 μL of a solution of moenomycin (1 μM) in 10% triton-X reduced and the remaining lipid II was separated from peptidoglycan (PG) using paper strip chromatography (isobutyric acid/1M NH4OH 5/3). Using a scintillation counter the ratio of radioactivity in PG to total radioactivity was determined and plotted vs. inhibitor concentration. IC50s were determined using the curve fitting program GraphPad Prism 5.0 (GraphPad Software, Inc.; La Jolla, Calif., USA).

S. aureus SgtB [5] = assay: Fluorescence polarization probe competition (Ki); format: binding; conditions: probe CMG121 75 nM, S. aureus SgtB 0.2 μM; read-out: Ki (displacement of probe CMG121)
Description: as §3, with “Each series was performed in duplicate and the data was plotted FP vs. concentration of test compound.” left out
A black 384 well plate (Corning NBS Low Volume No. 3820) was filled (10 μL per well) with an equilibrated solution containing 10 mM TRIS (pH=8.0), 100 mM NaCl, 75 nM disaccharide S15, and 1.0-1.5 μM S. aureus SgtB (depending on protein batch). […] The plate was incubated at 4° C. for 30 min and read with an Perkin Elmer EnVision microplate reader as described above. […]
For determination of the Ki, the average FP values were first converted to fluorescence anisotropy. […]

E. coli PBP1b [6] = target: T1, E. coli PBP1b; assay: In vitro PGT inhibition, PG formation from 14C-lipid II; format: biochemical; conditions: E. coli PBP1b 50 nM, lipid II 4 μM
Description: as §4
Solutions of the PGT (50 nM) in 50 mM HEPES (pH=7.5), 10 mM CaCl2, and […] PenG (8 μL) were incubated with DMSO solutions containing the inhibitor of interest in different concentrations (1 μL) for 20 min. Then ^14C-labelled lipid II (1 μL, 40 μM, ^14C/^12C 1/3) was added and the polymerization reaction was allowed to proceed for 25 min at room temperature. The reaction was quenched and processed as described above.

C=C(C/C=C(\C)CCC=C(C)C)CCC(C)(C)/C=C/CC/C(C)=C\CO[C@H](COP(=O)(O)O[C@H]1O[C@H](C(N)=O)[C@@](C)(O)[C@H](OC(N)=O)[C@H]1O[C@@H]1O[C@H](CO[C@@H]2O[C@H](CO)[C@@H](O)[C@H](O)[C@H]2O)[C@@H](O[C@@H]2O[C@H](C)[C@@H](O[C@@H]3O[C@H](C(=O)NC4=C(O)CCC4=O)[C@H](O)[C@H](O)[C@H]3O)[C@H](O)[C@H]2NC(C)=O)[C@H](O)[C@H]1NC(C)=O)C(=O)O [Moenomycin A]
Kd (S. aureus SgtB [1]): 1100 nM | Kd (E. coli PBP1b [2]; read-out: E. coli PBP1b Kd, FIG. 2, FP displacement, 75 nM probe S16, 0.1-0.15 uM PBP1b, 10 mM TRIS pH 8.0, 100 mM NaCl, 0° C. 30 min): 3900 nM | Kd (E. faecalis PBP2a): 950 nM

CCCCCCCCCCCCO[C@@H]1O[C@H](CO)[C@@H](O[C@H]2O[C@H](CO)[C@@H](O)[C@H](O)[C@H]2O)[C@H](O)[C@H]1O [dodecyl-β-D-maltoside]
Displacement of the probe compound (change in fluorescence polarization) on addition of test compound [3]: does not displace

C=C(C/C=C(\C)CCC=C(C)C)CCC(C)(C)/C=C/CC/C(C)=C\CO[C@H](COP(=O)(O)O[C@H]1O[C@H](C(N)=O)[C@@](C)(O)[C@H](OC(N)=O)[C@H]1O[C@@H]1O[C@H](CO[C@@H]2O[C@H](CO)[C@@H](O)[C@H](O)[C@H]2O)[C@@H](O[C@@H]2O[C@H](C)[C@@H](O[C@@H]3O[C@H](C(=O)NC4=C(O)CCC4=O)[C@H](O)[C@H](O)[C@H]3O)[C@H](O)[C@H]2NC(C)=O)[C@H](O)[C@H]1NC(C)=O)C(=O)O [moenomycin A]
Displacement of the probe compound (change in fluorescence polarization) on addition of test compound [3]: decrease in fluorescence polarization | Potency relative to vancomycin (Gram-positive organisms): 10-1000 times | IC50 (S. aureus SgtB [4]): 6 nM | Ki (S. aureus SgtB [5]): 640 nM | IC50 (E. coli PBP1b [6]): 12 nM

CC(=O)N[C@H]1[C@H](O[C@H]2[C@H](O)[C@@H](NC(C)=O)[C@H](O[C@H]3[C@@H](OP(=O)(O)OC[C@@H](OC/C=C(/C)CCC=C(C)C)C(=O)O)O[C@H](C(N)=O)[C@@](C)(O)[C@@H]3OC(N)=O)O[C@@H]2CO[C@@H]2O[C@H](CO)[C@@H](O)[C@H](O)[C@H]2O)O[C@H](C)[C@@H](O[C@@H]2O[C@H](C(=O)NC3=C(O)CCC3=O)[C@H](O)[C@H](O)[C@H]2O)[C@@H]1O [neryl-Moenomycin A (n-MmA), neryl-moenomycin A]
IC50 (E. coli PBP1b [2]; FIG. 6, printed on the figure showing FP displacement of the probe by neryl-moenomycin A): 200 nM

CC(=O)N[C@H]1[C@H](O[C@H]2[C@H](O)[C@@H](NC(C)=O)[C@H](O[C@H]3[C@@H](OP(=O)(O)OC[C@@H](OC/C=C(/C)CCC=C(C)C)C(=O)O)O[C@H](C(N)=O)[C@@](C)(O)[C@@H]3OC(N)=O)O[C@@H]2CO[C@@H]2O[C@H](CO)[C@@H](O)[C@H](O)[C@H]2O)O[C@H](C)[C@@H](O[C@@H]2O[C@H](C(=O)NC3=C(O)CCC3=O)[C@H](O)[C@H](O)[C@H]2O)[C@@H]1O [neryl-moenomycin A]
Displacement of the probe compound (change in fluorescence polarization) on addition of test compound [3]: decrease in fluorescence polarization

CCCCCCCCCCCCCC(=O)OC[C@H](COP(=O)(O)OCC(O)COP(=O)(O)OC[C@@H](COC(=O)CCCCCCCCCCCCC)OC(=O)CCCCCCCCCCCCC)OC(=O)CCCCCCCCCCCCC (stereo partly drawn) [tetramystryl cardiolipin]
Displacement of the probe compound (change in fluorescence polarization) on addition of test compound [3]: partial displacement

ZE-farnesyl-moenomycin A
Displacement of the probe compound (change in fluorescence polarization) on addition of test compound [3]: decrease in fluorescence polarization

nC12-moenomycin A
Displacement of the probe compound (change in fluorescence polarization) on addition of test compound [3]: decrease in fluorescence polarization

nC20-moenomycin A
Displacement of the probe compound (change in fluorescence polarization) on addition of test compound [3]: decrease in fluorescence polarization
